The record followed here is PubChem BioAssay AID1963845 (Molecular Pharmacology Branch, DTP, NCI, 2024).

Molecules are shown by their SMILES.
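Also: luminescence signal used as surrogate measure of viable cells; spheroids exposed to compounds for seven days before readout; 100% = DMSO vehicle control viability as luminescence relative to vehicle.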

The first assay relates to 429239-143-T-J1-PDC complex spheroid viability. Briefly: Anticancer human tumor 429239-143-T-J1-PDC patient-derived small cell lung carcinoma cell line growth inhibition [POLQ]. As to conditions: second compound 10 µM; first compound 0.0316 µM; stronger effect = lower value. Summed up: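 Patient-derived tumour cells were co-cultured with HUVEC and mesenchymal stem cells as multicellular spheroids at 37 °C. They were treated with POLQ inhibitors (novobiocin, ART-558, RP6685) alone or combined with other agents. Top concentrations were at or near clinical Cmax (otherwise 10 microM; SN-38 at 1 microM), decreasing in half-log steps.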
Take `CC1COCCN1c1cc(-c2ccnn2C)c2ccnc(-c3ccn[nH]3)c2n1` (configuration not stated) + Nc1ccc(C#CCN(C(=O)Cc2ncc(C(F)(F)F)cc2C(F)(F)F)c2ccc(F)cc2)nn1: the viability, T/C was 89.4%.
For `COc1cccc2c1C(=O)c1c(O)c3c(c(O)c1C2=O)CC(O)(C(=O)CO)CC3OC1CC(N)C(O)C(C)O1` (configuration not stated) + Nc1ccc(C#CCN(C(=O)Cc2ncc(C(F)(F)F)cc2C(F)(F)F)c2ccc(F)cc2)nn1, the viability, T/C was 80.7%.

Staying with this assay, now noted: second compound 10 µM; first compound 0.1 µM; stronger effect = lower value.
`C#Cc1c(F)ccc2cc(O)cc(-c3ncc4c(N5CC6CCC(C5)N6)nc(OCC56CCCN5CC(F)C6)nc4c3F)c12` (configuration not stated) + Cc1cccc(N(C)C(=O)C2C(O)CCN2c2nc(C)cc(C(F)(F)F)c2C#N)c1: the viability, T/C was 78.3%.
As to `CC1COCCN1c1cc(-c2ccnn2C)c2ccnc(-c3ccn[nH]3)c2n1` (configuration not stated) + Cc1cccc(N(C)C(=O)C2C(O)CCN2c2nc(C)cc(C(F)(F)F)c2C#N)c1, the viability, T/C is 50.7%.
Still for that read-out and setting: next, `COc1cc2cc(C(=O)CCC(=O)O)sc2cc1OC` + Cc1cccc(N(C)C(=O)C2C(O)CCN2c2nc(C)cc(C(F)(F)F)c2C#N)c1: 91.3%; `CC1COCCN1c1cc(-c2ccnn2C)c2ccnc(-c3ccn[nH]3)c2n1` (configuration not stated) + Nc1ccc(C#CCN(C(=O)Cc2ncc(C(F)(F)F)cc2C(F)(F)F)c2ccc(F)cc2)nn1: 71.2%; `COc1cccc2c1C(=O)c1c(O)c3c(c(O)c1C2=O)CC(O)(C(=O)CO)CC3OC1CC(N)C(O)C(C)O1` (configuration not stated) + Nc1ccc(C#CCN(C(=O)Cc2ncc(C(F)(F)F)cc2C(F)(F)F)c2ccc(F)cc2)nn1: 34.4%.

The assay is the same for the next values; noted with them: second compound 10 µM; first compound 0.316 µM; stronger effect = lower value.
For `C#Cc1c(F)ccc2cc(O)cc(-c3ncc4c(N5CC6CCC(C5)N6)nc(OCC56CCCN5CC(F)C6)nc4c3F)c12` (configuration not stated) + Cc1cccc(N(C)C(=O)C2C(O)CCN2c2nc(C)cc(C(F)(F)F)c2C#N)c1, the viability, T/C is 101%.
On the same count and under the same terms, next, `CC1COCCN1c1cc(-c2ccnn2C)c2ccnc(-c3ccn[nH]3)c2n1` (configuration not stated) + Cc1cccc(N(C)C(=O)C2C(O)CCN2c2nc(C)cc(C(F)(F)F)c2C#N)c1: 30.7%.
Still for that read-out and setting: next, `COc1cc2cc(C(=O)CCC(=O)O)sc2cc1OC` + Cc1cccc(N(C)C(=O)C2C(O)CCN2c2nc(C)cc(C(F)(F)F)c2C#N)c1: 99.3%; `CC1COCCN1c1cc(-c2ccnn2C)c2ccnc(-c3ccn[nH]3)c2n1` (configuration not stated) + Nc1ccc(C#CCN(C(=O)Cc2ncc(C(F)(F)F)cc2C(F)(F)F)c2ccc(F)cc2)nn1: 47.4%.
For the molecule `COc1cccc2c1C(=O)c1c(O)c3c(c(O)c1C2=O)CC(O)(C(=O)CO)CC3OC1CC(N)C(O)C(C)O1` (configuration not stated) + Nc1ccc(C#CCN(C(=O)Cc2ncc(C(F)(F)F)cc2C(F)(F)F)c2ccc(F)cc2)nn1, the viability, T/C is 5.07%.

The assay is the same for the next values; noted with them: second compound 10 µM; first compound 1 µM; stronger effect = lower value.
Regarding `C#Cc1c(F)ccc2cc(O)cc(-c3ncc4c(N5CC6CCC(C5)N6)nc(OCC56CCCN5CC(F)C6)nc4c3F)c12` (configuration not stated) + Cc1cccc(N(C)C(=O)C2C(O)CCN2c2nc(C)cc(C(F)(F)F)c2C#N)c1, the viability, T/C was 86%.
Still for that read-out and setting: then `CC1COCCN1c1cc(-c2ccnn2C)c2ccnc(-c3ccn[nH]3)c2n1` (configuration not stated) + Cc1cccc(N(C)C(=O)C2C(O)CCN2c2nc(C)cc(C(F)(F)F)c2C#N)c1, with 17.7%; and `COc1cc2cc(C(=O)CCC(=O)O)sc2cc1OC` + Cc1cccc(N(C)C(=O)C2C(O)CCN2c2nc(C)cc(C(F)(F)F)c2C#N)c1, with 120%; and `CC1COCCN1c1cc(-c2ccnn2C)c2ccnc(-c3ccn[nH]3)c2n1` (configuration not stated) + Nc1ccc(C#CCN(C(=O)Cc2ncc(C(F)(F)F)cc2C(F)(F)F)c2ccc(F)cc2)nn1, with 25.8%.
Still for that read-out and setting: then `COc1cccc2c1C(=O)c1c(O)c3c(c(O)c1C2=O)CC(O)(C(=O)CO)CC3OC1CC(N)C(O)C(C)O1` (configuration not stated) + Nc1ccc(C#CCN(C(=O)Cc2ncc(C(F)(F)F)cc2C(F)(F)F)c2ccc(F)cc2)nn1, with 0.55%.

Staying with this assay, now noted: second compound 10 µM; first compound 3.16 µM; stronger effect = lower value.
Regarding `C#Cc1c(F)ccc2cc(O)cc(-c3ncc4c(N5CC6CCC(C5)N6)nc(OCC56CCCN5CC(F)C6)nc4c3F)c12` (configuration not stated) + Cc1cccc(N(C)C(=O)C2C(O)CCN2c2nc(C)cc(C(F)(F)F)c2C#N)c1, the viability, T/C was 103%.
Still for that read-out and setting: then `CC1COCCN1c1cc(-c2ccnn2C)c2ccnc(-c3ccn[nH]3)c2n1` (configuration not stated) + Cc1cccc(N(C)C(=O)C2C(O)CCN2c2nc(C)cc(C(F)(F)F)c2C#N)c1, with 11.7%.
Turning to `COc1cc2cc(C(=O)CCC(=O)O)sc2cc1OC` + Cc1cccc(N(C)C(=O)C2C(O)CCN2c2nc(C)cc(C(F)(F)F)c2C#N)c1, the viability, T/C was 110%.
Still for that read-out and setting: then `CC1COCCN1c1cc(-c2ccnn2C)c2ccnc(-c3ccn[nH]3)c2n1` (configuration not stated) + Nc1ccc(C#CCN(C(=O)Cc2ncc(C(F)(F)F)cc2C(F)(F)F)c2ccc(F)cc2)nn1, with 4.8%.
Still for that read-out and setting: then `COc1cccc2c1C(=O)c1c(O)c3c(c(O)c1C2=O)CC(O)(C(=O)CO)CC3OC1CC(N)C(O)C(C)O1` (configuration not stated) + Nc1ccc(C#CCN(C(=O)Cc2ncc(C(F)(F)F)cc2C(F)(F)F)c2ccc(F)cc2)nn1, with 1.2%.

The assay is the same for the next values; noted with them: second compound 10 µM; first compound 10 µM; stronger effect = lower value.
Turning to `C#Cc1c(F)ccc2cc(O)cc(-c3ncc4c(N5CC6CCC(C5)N6)nc(OCC56CCCN5CC(F)C6)nc4c3F)c12` (configuration not stated) + Cc1cccc(N(C)C(=O)C2C(O)CCN2c2nc(C)cc(C(F)(F)F)c2C#N)c1, the viability, T/C was 100%.
As to `CC1COCCN1c1cc(-c2ccnn2C)c2ccnc(-c3ccn[nH]3)c2n1` (configuration not stated) + Cc1cccc(N(C)C(=O)C2C(O)CCN2c2nc(C)cc(C(F)(F)F)c2C#N)c1, the viability, T/C was 9.99%.
The same measure, in the same setting: then `COc1cc2cc(C(=O)CCC(=O)O)sc2cc1OC` + Cc1cccc(N(C)C(=O)C2C(O)CCN2c2nc(C)cc(C(F)(F)F)c2C#N)c1, with 97.7%; and `CC1COCCN1c1cc(-c2ccnn2C)c2ccnc(-c3ccn[nH]3)c2n1` (configuration not stated) + Nc1ccc(C#CCN(C(=O)Cc2ncc(C(F)(F)F)cc2C(F)(F)F)c2ccc(F)cc2)nn1, with 3.43%.
The same measure, in the same setting: next, `COc1cccc2c1C(=O)c1c(O)c3c(c(O)c1C2=O)CC(O)(C(=O)CO)CC3OC1CC(N)C(O)C(C)O1` (configuration not stated) + Nc1ccc(C#CCN(C(=O)Cc2ncc(C(F)(F)F)cc2C(F)(F)F)c2ccc(F)cc2)nn1: 0.18%.
